Experimental data: patent publication US20150080380A1, “Therapeutic Uses” (GLAXOSMITHKLINE INTELLECTUAL PROPERTY DEVELOPMENT LIMITED, priority 2012, published 2015)

What was measured:
[1] = target: T1, human recombinant H3 receptor (Homo sapiens, UniProt Q9Y5N1); assay: GTPγS binding assay (basal binding, HEK-293-GαO membranes); type: biochemical; settings: 100 nM-0.001 nM, absence of H3R agonist, 3 independent experiments; read-out: pEC50, inhibition of basal GTPγS binding (converted)
T1 construct: host or cells: HEK-293-GαO cells transduced with BacMam virus; membranes prepared
Experimental: The effect of Example compound 1 on basal GTPγS binding to the H3R receptor was determined in the GTPγS binding assay.
Human embryonic kidney 293 cells stably expressing G protein GαO (HEK-293-GO) were maintained in minimum essential medium (MEM) supplemented with Earle's salts, 2 mM L-glutamine, […] geneticin and 10% foetal bovine serum at 37-8° C., 5% CO2 in a humidified environment. Exponentially growing cells were infected with BacMam virus encoding the human recombinant H3 receptor (Biocat: Virus 96801) as follows. Cells were detached from flasks in PBS and collected by centrifugation at 200×g for 5 min at room temperature. […]
Cell membranes were diluted to ˜1 mg/ml in assay buffer (20 mM HEPES, 100 mM NaCl, 10 mM MgCl2, pH 7.4) and incubated with wheat germ agglutinin scintillation proximity assay (SPA) beads (Amersham Biosciences) for 45 min, after which GDP ([…]) was added. […] Non-specific binding was determined by the inclusion of 0.6 mM GTPγS. […] Filters were washed twice with 4 ml ice-cold water and bound […] on the filters was measured by scintillation counting on a Wallac 1450 Microbeta Trilux counter.
The data was analyzed and presented as fold change of the number of the vehicle control well (DMSO). […]

[2] = system: remyelination in cuprizone-induced demyelination; assay: Mouse cuprizone-induced demyelination model (Black-gold II staining); type: in vivo, C57BL/6 mice; settings: forebrain and hindbrain; for myelin staining intensity of corpus callosum (percentage of mean density of naïve control): vehicle 15.75%; for demyelination area, corpus callosum: vehicle 54.81%
Experimental: The ability of the compound of Example 1 to enhance in vivo remyelination was determined with the mouse cuprizone-induced demyelination model.
The cuprizone model was conducted with the protocol as follows: the C57BL/6 mice at age of 8 weeks were fed with powder mouse food mixed freshly with 0.2% cuprizone (w/w) for 5 weeks to induce demyelination, then animals were allowed to recover (removal of cuprizone from the diet) and administrated with Example compound 1, at 0.3 mg/kg, 1 mg/kg, 3 mg/kg and 10 mg/kg body weight orally, b.i.d. for an additional 9 days prior to sacrifice. The brain samples were collected for assessment of myelination. The compound of Example 1 was formulated as a suspension using 1% aqueous methylcellulose as the vehicle.
Mice were deeply anesthetized and quickly perfused with 0.9% saline via the left cardiac ventricle to drain out blood. Whole brains were taken out and put into 15 ml tube with 4% paraformaldehyde (PFA) for post-fixation overnight, then soaked in 30% sucrose for 24-48 h to dehydrate. For frozen embedding, brains were immediately snap frozen in isopentane mixed with dry ice and then embedded in optimal cutting temperature solution (OCT). Whole brains were sectioned at coronal position from Bregma −2.46 mm to 1.18 mm according to mouse atlas by Paxinos and Franklin (The Mouse Brain in Stereotaxic Coordinates—3rd Edition) with cryostat (MICROM HM525) at a thickness of 30 μm. All sections were put into 96-well plate filled with anti-freezing solution [300 g sucrose dissolved in 500 ml 0.1 M PB solution (combine 11.505 g Na2HPO4 and 2.275 g NaH2PO4, dilute to 1 L with distilled water, adjust pH to 7.4) plus 300 ml Ethylene glycol and dilute to 1 L with distilled water]. For Black-gold II staining, 2 sections from forebrain around the bregma 0.86 mm and 2 sections from hindbrain around the bregma −1.58 mm for each mouse respectively were chosen according to mouse atlas by Paxinos and Franklin. Black-gold II staining for detection of myelination was performed according to a protocol adapted from the manufacturer (AG105, Millipore). Briefly, 2 free-floating sections from forebrain and 2 sections from hindbrain were rehydrated 2× in MilliQ water for 2 minutes each time and then stained in a 24-well plate with 0.3% Black-gold II solution at 60° C. for 20 minutes. The sections were monitored to determine the extent of staining. When the finest myelinated fibers were stained dark red to black, the staining process was stopped. The sections were then rinsed 2× in MilliQ water for 2 minutes each time. Then the sections were treated with Sodium thiosulfate solution (1%) for 6 minutes at 60° C. After rinsing in PBST (0.05% Triton X100 in PBS), sections were mounted on slides (Leica Microsystems Plus Slides) and further air-dried on 37° C. heating platform for 2-4 hours. The dehydrated slides were coverslipped with robotic coverslipper (CV5030, Leica). Stained slides were scanned by Scanscope (Aperio Technologies Inc.). Digital images of central corpus callosum or cortex close to cingulum were captured using ImageScope (Aperio Technologies Inc.) at the magnification of 20×.
Image-Pro 6.3 software (Media Cybernetics, Bethesda, Md. 20814 USA) was used for subsequent quantitative evaluation. Threshold was set to Black-gold II staining in each gated corpus callosum and held constant for images obtained at equal objectives and light intensities on slides that were processed. Two parameters were used here: area and IOD (Integrated Optical Density). For measurement of demyelination area, all digital images were set under the same colour range after converted to a greyscale value of 8. Demyelination area indicated by void of Black-gold staining and total area of central corpus callosum at 20× magnification were measured separately on each image. Mean demyelination area was calculated as: (demyelination area/total area of central corpus callosum)×100. […]

T1 sequence (Q9Y5N1 whole entry): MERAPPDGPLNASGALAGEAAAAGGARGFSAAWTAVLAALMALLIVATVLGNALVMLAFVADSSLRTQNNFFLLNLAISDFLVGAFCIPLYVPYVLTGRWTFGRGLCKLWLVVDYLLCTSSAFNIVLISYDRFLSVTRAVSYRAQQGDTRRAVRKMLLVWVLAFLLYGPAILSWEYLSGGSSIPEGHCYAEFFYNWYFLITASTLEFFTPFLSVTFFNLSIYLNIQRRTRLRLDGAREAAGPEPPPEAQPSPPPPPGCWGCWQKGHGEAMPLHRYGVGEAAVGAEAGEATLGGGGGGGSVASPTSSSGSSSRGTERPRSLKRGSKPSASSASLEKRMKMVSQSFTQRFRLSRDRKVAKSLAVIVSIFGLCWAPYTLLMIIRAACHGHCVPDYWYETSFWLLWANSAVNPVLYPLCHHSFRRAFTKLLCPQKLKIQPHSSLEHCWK

O=C1CCCN1c1ccc(Oc2ccc3c(c2)CCN(C2CCC2)CC3)nc1 [Example compound 1, 1-{6-[(3-cyclobutyl-2,3,4,5-tetrahydro-1H-3-benzazepin-7-yl)oxy]-3-pyridinyl}-2-pyrrolidinone]
EC50 [1]: 0.112 nM
myelin staining intensity of corpus callosum (percentage of mean density of naïve control) ([2]; 0.3 mg/kg orally b.i.d. 9 days): 18.61%±1.01%
demyelination area, corpus callosum ([2]; 0.3 mg/kg orally b.i.d. 9 days): 46.82%±3.54%
myelin staining intensity of corpus callosum (percentage of mean density of naïve control) ([2]; 1 mg/kg orally b.i.d. 9 days): 22.00%±3.41%
demyelination area, corpus callosum ([2]; 1 mg/kg orally b.i.d. 9 days): 38.45%±7.55%
myelin staining intensity of corpus callosum (percentage of mean density of naïve control) ([2]; 3 mg/kg orally b.i.d. 9 days): 28.32%±7.76%
demyelination area, corpus callosum ([2]; 3 mg/kg orally b.i.d. 9 days): 41.22%±11.14%
myelin staining intensity of corpus callosum (percentage of mean density of naïve control) ([2]; 10 mg/kg orally b.i.d. 9 days, P<0.05): 26.36%±3.10%
demyelination area, corpus callosum ([2]; 10 mg/kg orally b.i.d. 9 days, P<0.01): 27.62%±5.20%
